Measurements from patent US6486128B1, “Method of using emamectin to treat fish parasites” (Schering-Plough Veterinary Corporation, priority 1999, dated 2002).

What was measured:
[1] = Daily observation of fish for behavior, adverse drug reactions and mortalities (three studies); type: in vivo, Atlantic salmon, Salmo salar L.; details: at the dosage levels and dosage schedule of the invention
Procedure: Fish were held in replicate groups in plastic fiber tanks, each with a volume of 0.54 m^3. Each tank was supplied with natural sea water at ambient temperature (7-14° C.) and salinity (30-35 ppt), at flow rates of approximately 18 l. min^−1. The tanks were fitted with mesh screens over the water outlet to retain uneaten fish pellets. Fish were observed daily for behavior and adverse drug reactions. Fish mortalities and the occurrence of gross sea lice damage were also recorded.

parasites = assay: Sustained efficacy after emamectin treatment; type: in vivo

## 4″-deoxy-4″ epimethylaminoavermectin B1 [emamectin]
[1]
  toxicity to fish populations: not toxic
parasites
  sustained efficacy after treatment: 8 to 10 weeks
